{"source": "patent US11452292B2", "about": "“Biofilm inhibitor and method of inhibiting biofilm” (NDSU Research Foundation, priority 2017, dated 2022)", "key": {"E. coli O157:H7": {"test_system": "E. coli O157:H7", "format": "cell-based, Escherichia coli O157:H7", "conditions": "0.5% EAA"}, "S. enterica [1]": {"test_system": "S. enterica", "conditions": "cited from earlier work"}, "S. aureus": {"test_system": "S. aureus", "test": "Viable cell counts in the liquid collected from the tubing before each treatment", "format": "cell-based, Staphylococcus aureus", "conditions": "before the 2nd treatment, 100 mg/ml EAA as first treatment"}, "S. enterica [2]": {"test_system": "S. enterica", "format": "cell-based, Salmonella enterica serovar Typhimurium"}, "P. aeruginosa [3]": {"test_system": "P. aeruginosa", "test": "Viable cell counts in the liquid collected from the tubing before each treatment"}, "S. marcescens [4]": {"test_system": "S. marcescens", "test": "Biofilm amounts, ATP assay, 24-well polystyrene plate", "format": "cell-based", "conditions": "Serratia marcescens, 30° C."}, "Y. enterocolitica [5]": {"test_system": "Y. enterocolitica", "test": "Biofilm amounts, ATP assay, 24-well polystyrene plate", "format": "cell-based, Yersinia enterocolitica", "conditions": "for IC50: Yersinia enterocolitica, Y. enterocolitica"}, "C. sakazakii": {"test_system": "C. sakazakii", "test": "Biofilm amounts, CV assay, 24-well polystyrene plate", "format": "cell-based", "conditions": "Cronobacter sakazakii, 37° C.", "excerpt": "(§1) Data were expressed as OD600."}, "S. marcescens [6]": {"test_system": "S. marcescens", "test": "Biofilm amounts, CV assay, 24-well polystyrene plate", "format": "cell-based", "conditions": "Serratia marcescens, 30° C.", "excerpt": "as §1"}, "[7]": {"test_system": "tested bacterial pathogens", "test": "Biofilm in silicone tubing, EAA flush, ATP assay, summary over strains", "format": "cell-based", "excerpt": "An AV Fistula Needle 17 Ga."}, "Y. enterocolitica [8]": {"test_system": "Y. enterocolitica", "test": "Biofilm in silicone tubing, EAA flush, ATP assay"}, "Enterobacteriaceae": {"test_system": "Enterobacteriaceae", "test": "Ground beef at 10° C., counts on VRBG plates", "format": "cell-based", "conditions": "for Different from 0% (concentrations grouping differently from untreated control, Fisher's LSD and t-test): VRGB, Enterobacteriaceae", "experimental": "Ground beef was obtained from the NDSU Meat Lab (ag.ndsu.edu/ansc/facilities/shepperd-arena). Precautionary steps that the slaughter facility undertakes to prevent microbial contamination of muscle meat include rinses of the hot carcass with hot water and 2.5% lactic acid (Birko Corp., Henderson, Colo.). Prior to cutting the meat, cattle halves are incubated for two weeks at a temperature between 0 and 2.2° C. For this Example, meat from two animals was ground within the NDSU Meat Lab and consecutively transferred on ice to the research lab where this Experiment was conducted. Approximately 4 pound of ground meat was obtained from two independent slaughter events (FIG. 6). These two original meat samples are referred to as biological replicates throughout this study. Each biological replicate was weighed into five aliquots of 200 g that were supplemented with 0 g, 0.1 g, 0.5 g, 1 g, or 5 g of liquid EAA (Alfa Aesar, Ward Hill Mass.). A total of six aliquots of 10 g were produced from each 200 g aliquot to allow for two technical replicates and determination of bacterial counts at three different time points during the incubation period. Aliquots were stored in Ziploc bags at −20° C.\nMeat samples were removed from the freezer and incubated at 10° C. for five days; bacterial counts were determined on days 1, 3, and 5. For one initial experiment, samples were removed after 1 h of incubation at 10° C. This aliquot is not included in FIG. 6.\nThe content of each bag was transferred into a stomacher bag and Maximum Recovery Diluent (MRD) was added to a total of 50 ml. Meat was homogenized in a Seward Stomacher 400 Circulator (Cole Parmer, Vernon Hills, Ill.). The total bacterial count of each homogenate was determined by plating serial dilutions on Plate Count Agar (PCA). Pseudomonads were determined with Pseudomonas Selective Agar (PSA), lactobacilli with All Purpose Tween agar (APT), B. thermospacta with Streptomycin sulphate, Thallous Acetate and Actidione agar (STAA), and Enterobacteriaceae with Violet Red Bile Glucose agar (VRBG). For the composition of these media, see TABLE 7 (BD: Becton Dickinson). […]\nEach experiment was performed in a total of 8 replicates (2 biological replicates×2 technical replicates×2 plate replicates). […] Data were analyzed for each EAA concentration and selective media and expressed as CFU/g of meat or log10 CFU/g of meat. […] Average and standard errors were calculated across the two biological and two technical replicates. […] For comparisons that determined statistically significant differences between the means (p-value below 0.05), Fisher's Least Significant Difference (LSD) test and a pairwise Student's t-test were performed as post hoc test to determine which of the groups were different from the others."}, "P. aeruginosa [9]": {"test_system": "P. aeruginosa", "test": "Biofilm in silicone tubing, EAA flush, ATP assay"}, "rats": {"test_system": "rats", "conditions": "rats fed up to 300 mg/kg body weight of EAA every day for 28 days; cited from earlier work"}, "Y. enterocolitica [10]": {"test_system": "Y. enterocolitica", "test": "Planktonic growth (maximal velocity of OD600) in TSB", "format": "cell-based, Yersinia enterocolitica", "conditions": "for IC50: Yersinia enterocolitica, Y. enterocolitica", "experimental": "The IC50 values were calculated using […] software (Hitachi Solutions, San Bruno, Calif.)."}, "E. coli CFT073": {"test_system": "E. coli CFT073", "test": "Biofilm in silicone tubing, EAA flush, CV assay"}}, "note": "“Also recorded” adds a separate entry of the source.", "data": [{"smiles": "CCOC(=O)CC(C)=O", "note": "[EAA, ethyl acetoacetate]", "values": [{"measurement": "externally added E. coli count in the presence of EAA", "setting": "E. coli O157:H7; day 3, without EAA 5.2 log10", "value": 4.1, "unit": "log10"}, {"measurement": "reduction in the E. coli count", "setting": "E. coli O157:H7; day 5 at 10° C.", "value": 1.6, "unit": "log"}, {"measurement": "mutagenicity", "setting": "S. enterica [1]", "value": "No mutagenicity was detected"}, {"measurement": "difference in viable cells in the liquid, EAA vs media flush", "setting": "S. aureus", "value": 2, "unit": "log"}, {"measurement": "reduction in the bacterial counts of S. enterica", "setting": "S. enterica [2]; 0.5% EAA, 10° C.", "value": "not observed"}, {"measurement": "log reduction, Salmonella enterica serovar Typhimurium", "setting": "S. enterica [2]; 0.5% w/w EAA, 3 days at 10° C.", "value": 0.2}, {"measurement": "difference in viable cells in the liquid, EAA vs media flush", "setting": "P. aeruginosa [3]; before the 2nd treatment, 100 mg/ml of EAA as first treatment", "value": "< 2", "unit": "log"}, {"measurement": "increase in viable cells in the liquid, EAA vs media flush", "setting": "P. aeruginosa [3]; before the 4th treatment, 3 treatments of 100 mg/ml of EAA", "value": "~1", "unit": "log"}, {"measurement": "difference in cell numbers, EAA vs media control", "setting": "P. aeruginosa [3]; before the third treatment, two treatments of 100 mg/ml of EAA", "value": "approximately 2 logs"}, {"measurement": "IC50", "setting": "S. marcescens [4]", "value": 5500, "unit": "µg/mL"}, {"measurement": "biofilm reduction by the ATP assay, fold equivalent", "setting": "Y. enterocolitica [5]; 25° C., 15 mg/ml of EAA", "value": 200, "unit": "fold"}, {"measurement": "log ratio of biofilm reduction by the ATP assay", "setting": "Y. enterocolitica [5]; 25° C., 15 mg/ml of EAA", "value": 2.3, "unit": "log"}, {"measurement": "biofilm amounts quantified by the ATP assay", "setting": "Y. enterocolitica [5]; 37° C., 10 mg/ml EAA", "value": "abolished"}, {"measurement": "log reduction in biofilm amount, ATP assay", "setting": "Y. enterocolitica [5]; 37° C., 10 mg/ml of EAA", "value": 2.04}, {"measurement": "reduction in biofilm amount, ATP assay, fold equivalent", "setting": "Y. enterocolitica [5]; 37° C., 10 mg/ml of EAA", "value": 110, "unit": "fold"}, {"measurement": "IC50", "setting": "Y. enterocolitica [5]; 25° C.", "value": 2100, "unit": "µg/mL"}, {"measurement": "IC50", "setting": "Y. enterocolitica [5]; 37° C.", "value": 4290, "unit": "µg/mL"}, {"measurement": "IC50", "setting": "C. sakazakii", "value": 700, "unit": "µg/mL"}, {"measurement": "IC50", "setting": "S. marcescens [6]", "value": 5600, "unit": "µg/mL"}, {"measurement": "reductions of ATP, all strains except S. marcescens", "setting": "[7]; 10 mg/ml EAA", "value": "≥ 80", "unit": "%"}, {"measurement": "reduction of ATP content of the biofilm, almost all tested pathogens", "setting": "[7]; 100 mg/ml of EAA flush", "value": 100, "unit": "%"}, {"measurement": "reduction of ATP content depending on the strain", "setting": "[7]; 10 and 100 mg/ml EAA", "value": "90-99%"}, {"measurement": "reduction in ATP content in the biofilm", "setting": "Y. enterocolitica [8]; 1 mg/ml EAA", "value": 71, "unit": "%"}, {"measurement": "percent reduction of ATP", "setting": "Y. enterocolitica [8]; 100 mg/ml EAA", "value": 105, "unit": "%"}, {"measurement": "log reduction, Enterobacteriaceae", "setting": "Enterobacteriaceae; 0.5% w/w EAA, 3 days at 10° C.", "value": 2}, {"measurement": "log reductions, Enterobacteriaceae", "setting": "Enterobacteriaceae; 2.5% of EAA, 5 days at 10° C.", "value": "up to 3.8"}, {"measurement": "Different from 0% (concentrations grouping differently from untreated control, Fisher's LSD and t-test)", "setting": "Enterobacteriaceae; 0.5% EAA", "value": 0.5, "unit": "%"}, {"measurement": "Different from 0% (concentrations grouping differently from untreated control, Fisher's LSD and t-test)", "setting": "Enterobacteriaceae; 2.5% EAA", "value": 2.5, "unit": "%"}, {"measurement": "ATP content of P. aeruginosa biofilm", "setting": "P. aeruginosa [9]; 100 mg/ml EAA, first experiment", "value": "not affected; also recorded: not reduced"}, {"measurement": "reduction of ATP", "setting": "P. aeruginosa [9]; P. aeruginosa, 10 mg/ml of EAA", "value": 76, "unit": "%"}, {"measurement": "ATP assay of the biofilm at the end of the two week incubation", "setting": "P. aeruginosa [9]; P. aeruginosa, 100 mg/ml of EAA, repeated experiment", "value": "just about abolished the biofilm"}, {"measurement": "general health, hematology, serum, urine, renal function", "setting": "rats", "value": "did not result in any general health defects or changes in hematology, serum, urine, or renal function"}, {"measurement": "log reduction of planktonic growth", "setting": "Y. enterocolitica [10]; 25° C., 10 mg/ml EAA", "value": 1.7, "unit": "log"}, {"measurement": "reduction of planktonic growth, fold equivalent", "setting": "Y. enterocolitica [10]; 25° C., 10 mg/ml EAA", "value": 50, "unit": "fold"}, {"measurement": "log reduction of planktonic growth", "setting": "Y. enterocolitica [10]; 37° C., 5 mg/ml EAA", "value": 1.78}, {"measurement": "reduction of planktonic growth, fold equivalent", "setting": "Y. enterocolitica [10]; 37° C., 5 mg/ml EAA", "value": 61, "unit": "fold"}, {"measurement": "IC50", "setting": "Y. enterocolitica [10]; 25° C.", "value": 3200, "unit": "µg/mL"}, {"measurement": "IC50", "setting": "Y. enterocolitica [10]; 37° C.", "value": 2480, "unit": "µg/mL"}, {"measurement": "reduction in total biofilm biomass (CV), words", "setting": "E. coli CFT073; E. coli CFT073, 5 mg/ml of EAA", "value": "almost no reduction"}, {"measurement": "reduction in biofilm biomass (CV), words", "setting": "E. coli CFT073; E. coli CFT073, 10 mg/ml EAA", "value": "No reduction"}]}]}
